# From ChEMBL document CHEMBL1201862, “PubChem BioAssay data set” (2004)
# Calls of active or inactive are those of the source. For most assays here, no stated cut-off is given here; in the data, actives have a measured EC50 and inactives only a lower limit.
# What was measured:
# [1] = NIH-3T3 fibroblast cytotoxicity, dose response, cytotoxicity control, cell-based, fluorescence, Alamar Blue, secondary assay (AID 2327); type: functional;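 further: NIH-3T3 mouse fibroblasts cultured with fluconazole at 8 µg/mL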
# [2] = system: Streptococcus sp. 'group A'; test: growth inhibition of control SK(-) GAS strain, dose response, counter-screen for streptokinase expression inhibitor project, luminescence, kanamycin, BacTiterGlo, confirmation (AID 1900); type: functional, organism-based
# [3] = system: BJ; test: cytotoxicity toward BJ-TERT fibroblasts, dose response, cell-based, RAS-independent, luminescence (AID 1933); type: functional; conditions: Homo sapiens
# [4] = target: Beta-galactosidase (Escherichia coli, UniProt Q8VNN2); test: PubChem AID 485352; type: functional
# Chain of Beta-galactosidase (Q8VNN2 whole entry): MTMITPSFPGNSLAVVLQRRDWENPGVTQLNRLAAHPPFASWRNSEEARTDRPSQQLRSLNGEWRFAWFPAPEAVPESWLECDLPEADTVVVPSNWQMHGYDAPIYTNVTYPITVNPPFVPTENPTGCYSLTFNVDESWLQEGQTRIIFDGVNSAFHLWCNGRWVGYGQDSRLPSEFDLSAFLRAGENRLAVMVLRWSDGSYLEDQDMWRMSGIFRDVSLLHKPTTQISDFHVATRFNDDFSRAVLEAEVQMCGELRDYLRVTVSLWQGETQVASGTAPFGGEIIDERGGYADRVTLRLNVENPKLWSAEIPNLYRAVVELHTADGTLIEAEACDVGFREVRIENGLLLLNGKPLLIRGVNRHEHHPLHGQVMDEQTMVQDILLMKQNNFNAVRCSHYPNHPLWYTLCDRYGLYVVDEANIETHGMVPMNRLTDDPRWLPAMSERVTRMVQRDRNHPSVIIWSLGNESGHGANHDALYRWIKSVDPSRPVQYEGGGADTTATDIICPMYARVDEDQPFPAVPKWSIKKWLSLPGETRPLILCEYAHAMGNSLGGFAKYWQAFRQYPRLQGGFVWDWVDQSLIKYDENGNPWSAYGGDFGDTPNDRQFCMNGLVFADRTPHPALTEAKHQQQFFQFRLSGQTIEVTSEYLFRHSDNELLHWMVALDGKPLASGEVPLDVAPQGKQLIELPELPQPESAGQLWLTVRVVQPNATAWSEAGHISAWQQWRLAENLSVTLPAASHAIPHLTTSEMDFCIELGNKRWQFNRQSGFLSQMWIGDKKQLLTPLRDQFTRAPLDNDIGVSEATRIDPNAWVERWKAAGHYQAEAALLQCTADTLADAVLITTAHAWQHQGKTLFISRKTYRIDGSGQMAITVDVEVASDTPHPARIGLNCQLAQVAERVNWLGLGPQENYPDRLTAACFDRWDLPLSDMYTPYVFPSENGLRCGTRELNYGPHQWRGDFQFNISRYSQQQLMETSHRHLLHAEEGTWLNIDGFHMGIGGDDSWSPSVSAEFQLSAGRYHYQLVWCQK
# [5] = target: T1, Streptokinase A (Streptococcus pyogenes serotype M1, UniProt P10520); test: S. pyogenes streptokinase expression inhibitors, potency, dose response, plasminogen activation absorbance, OD405 (AID 1914); type: functional, Streptococcus pyogenes M1 GAS;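 further: secreted streptokinase activity via plasminogen activation per viability signal from cell pellet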
# T1 sequence (P10520 whole entry): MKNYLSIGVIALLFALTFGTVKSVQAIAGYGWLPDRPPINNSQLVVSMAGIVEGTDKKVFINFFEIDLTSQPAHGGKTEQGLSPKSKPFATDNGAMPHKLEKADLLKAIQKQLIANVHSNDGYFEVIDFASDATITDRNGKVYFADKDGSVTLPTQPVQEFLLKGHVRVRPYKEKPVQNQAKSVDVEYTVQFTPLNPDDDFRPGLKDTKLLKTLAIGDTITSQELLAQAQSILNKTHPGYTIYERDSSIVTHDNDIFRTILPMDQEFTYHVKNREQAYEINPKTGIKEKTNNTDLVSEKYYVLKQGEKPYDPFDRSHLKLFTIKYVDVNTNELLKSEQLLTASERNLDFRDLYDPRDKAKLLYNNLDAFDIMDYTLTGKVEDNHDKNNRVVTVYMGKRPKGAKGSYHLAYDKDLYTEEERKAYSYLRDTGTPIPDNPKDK
# [6] = system: BJ; test: cells; type: functional, cell-based; conditions: Homo sapiens
# [7] = C. albicans growth with fluconazole, confirmation, fluorescence, retest (AID 2467); type: functional, cell-based
# [8] = target: Type-1 angiotensin II receptor (Homo sapiens, UniProt P30556); test: AT1 receptor antagonists, dose response, selectivity assay for APJ receptor antagonist project, cell-based, uHTS hits (AID 463214); type: functional;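 further: antagonist potency against angiotensin II stimulated AT1 response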
# [9] = target: Serine/threonine-protein phosphatase (Candida dubliniensis (strain CD36 / CBS 7987 / NCPF 3949 / NRRLY-17841) (Yeast), UniProt B9W6M3); test: calcineurin pathway inhibitors in yeast reporter, dose response, S. cerevisiae, CDRE-lacZ, luminescence, secondary (AID 2388); type: functional, cell-based;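 further: yeast reporter cells carrying a calcineurin-responsive lacZ construct stimulated with calcium chloride; luminescent beta-galactosidase reporter signal in whole cells rather than isolated phosphatase activity; potency for inhibition where a drop in reporter signal means calcineurin blockade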
# Chain of Serine/threonine-protein phosphatase (B9W6M3 whole entry): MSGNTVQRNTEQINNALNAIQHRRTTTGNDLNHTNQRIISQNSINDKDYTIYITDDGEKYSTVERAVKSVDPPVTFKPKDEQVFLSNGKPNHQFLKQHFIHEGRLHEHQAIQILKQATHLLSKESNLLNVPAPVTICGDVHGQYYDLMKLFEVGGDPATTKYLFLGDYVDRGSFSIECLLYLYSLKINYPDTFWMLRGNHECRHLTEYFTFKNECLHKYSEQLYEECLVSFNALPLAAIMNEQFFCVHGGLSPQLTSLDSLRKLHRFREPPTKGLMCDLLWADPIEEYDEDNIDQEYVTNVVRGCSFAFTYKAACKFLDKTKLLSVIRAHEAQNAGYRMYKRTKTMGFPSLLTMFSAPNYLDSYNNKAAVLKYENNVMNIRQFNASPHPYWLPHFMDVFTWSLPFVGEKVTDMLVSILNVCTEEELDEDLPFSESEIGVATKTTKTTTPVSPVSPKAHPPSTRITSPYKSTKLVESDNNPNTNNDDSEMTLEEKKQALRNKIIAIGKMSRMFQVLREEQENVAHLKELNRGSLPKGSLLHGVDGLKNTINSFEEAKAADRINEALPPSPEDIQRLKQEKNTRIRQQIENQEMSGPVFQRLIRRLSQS
# [10] = system: BJ; test: cytotoxicity toward BJ-TERT-LT-ST fibroblasts, dose response, cell-based, RAS-independent, luminescence (AID 1935); type: functional; conditions: Homo sapiens;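 further: BJ fibroblasts immortalized with TERT plus LT and ST oncogenes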
# [11] = cytotoxicity toward DRD oncogenic fibroblasts, dose response, cell-based, non-viral oncogenic, luminescence (AID 1934); type: functional; conditions: Homo sapiens
# [12] = system: Streptococcus; test: Group A Streptococcus viability loss, dose response, counter-screen for streptokinase expression inhibitor project, luminescence, BacTiterGlo (AID 1915); type: functional, organism-based;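 further: potency for reduction of bacterial viability or growth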
# [13] = target: Intestinal-type alkaline phosphatase (Homo sapiens, UniProt P09923); test: activation of human intestinal alkaline phosphatase – biochemical, dose response (AID 488873); type: functional
# Chain of Intestinal-type alkaline phosphatase (Homo sapiens, UniProt P09923) (P09923 whole entry): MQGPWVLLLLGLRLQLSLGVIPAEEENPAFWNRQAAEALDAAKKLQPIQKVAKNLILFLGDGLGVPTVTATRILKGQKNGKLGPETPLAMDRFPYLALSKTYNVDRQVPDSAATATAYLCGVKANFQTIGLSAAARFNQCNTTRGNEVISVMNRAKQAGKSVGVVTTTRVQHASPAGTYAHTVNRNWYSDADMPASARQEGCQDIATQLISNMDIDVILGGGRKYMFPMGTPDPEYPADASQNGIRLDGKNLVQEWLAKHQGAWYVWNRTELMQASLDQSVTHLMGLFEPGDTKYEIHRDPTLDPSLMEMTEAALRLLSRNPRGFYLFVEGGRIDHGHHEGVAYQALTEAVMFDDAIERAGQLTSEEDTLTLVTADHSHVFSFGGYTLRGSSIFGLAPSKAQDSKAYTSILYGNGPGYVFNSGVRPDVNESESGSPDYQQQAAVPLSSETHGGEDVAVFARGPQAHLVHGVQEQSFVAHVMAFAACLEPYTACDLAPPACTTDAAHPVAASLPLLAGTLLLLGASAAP
# [14] = target: Beta-adrenergic receptor kinase 1 (Homo sapiens, UniProt P25098); test: aptamer displacement from bead-bound GRK2 – biochemical, cherry pick 1, bead flow cytometry, dose response (AID 504500)
# Chain of Beta-adrenergic receptor kinase 1 (P25098 whole entry): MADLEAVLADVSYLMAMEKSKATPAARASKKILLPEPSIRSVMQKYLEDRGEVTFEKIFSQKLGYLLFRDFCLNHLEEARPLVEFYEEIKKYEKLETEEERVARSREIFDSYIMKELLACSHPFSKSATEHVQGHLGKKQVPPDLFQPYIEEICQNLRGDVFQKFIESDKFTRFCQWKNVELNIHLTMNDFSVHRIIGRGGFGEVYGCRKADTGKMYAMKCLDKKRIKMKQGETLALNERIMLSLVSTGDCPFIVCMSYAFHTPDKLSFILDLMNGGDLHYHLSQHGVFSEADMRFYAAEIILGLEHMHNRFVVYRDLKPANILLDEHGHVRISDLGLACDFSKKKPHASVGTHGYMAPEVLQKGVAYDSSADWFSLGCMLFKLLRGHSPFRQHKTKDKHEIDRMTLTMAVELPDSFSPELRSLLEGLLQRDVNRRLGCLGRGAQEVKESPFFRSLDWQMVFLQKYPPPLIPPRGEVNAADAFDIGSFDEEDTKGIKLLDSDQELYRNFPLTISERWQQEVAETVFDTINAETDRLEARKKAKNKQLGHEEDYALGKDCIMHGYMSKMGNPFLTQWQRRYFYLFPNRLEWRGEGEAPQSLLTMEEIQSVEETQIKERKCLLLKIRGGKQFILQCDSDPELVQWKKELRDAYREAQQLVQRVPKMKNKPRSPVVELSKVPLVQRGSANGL
# [15] = cytotoxicity in HEK-293T cells, dose response, cytotoxicity control for TCR NF-kB inhibitor project, luminescence, T-cell screen hits (AID 489026); type: functional, cell-based;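 further: cells exposed to compound about 14 hours before the viability readout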
# [16] = target: Intestinal-type alkaline phosphatase (Mus musculus, UniProt P24822); test: mouse intestinal alkaline phosphatase activators, dose response, biochemical, luminescence, uHTS hits (AID 488783); type: functional
# Chain of Intestinal-type alkaline phosphatase (Mus musculus, UniProt P24822) (P24822 whole entry): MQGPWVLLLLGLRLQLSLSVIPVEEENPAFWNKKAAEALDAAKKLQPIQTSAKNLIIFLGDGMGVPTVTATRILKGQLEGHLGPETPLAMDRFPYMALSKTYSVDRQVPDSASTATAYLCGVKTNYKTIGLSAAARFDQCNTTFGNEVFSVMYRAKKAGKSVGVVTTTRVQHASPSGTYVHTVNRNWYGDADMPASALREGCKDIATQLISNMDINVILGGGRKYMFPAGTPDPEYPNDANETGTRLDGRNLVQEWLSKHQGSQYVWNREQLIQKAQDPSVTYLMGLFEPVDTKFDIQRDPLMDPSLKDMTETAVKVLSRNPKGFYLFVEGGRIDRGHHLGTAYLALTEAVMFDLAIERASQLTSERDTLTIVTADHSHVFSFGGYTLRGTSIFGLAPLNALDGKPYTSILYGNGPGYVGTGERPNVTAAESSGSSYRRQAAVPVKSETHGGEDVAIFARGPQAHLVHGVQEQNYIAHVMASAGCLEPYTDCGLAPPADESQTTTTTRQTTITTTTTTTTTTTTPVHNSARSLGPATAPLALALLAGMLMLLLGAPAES
# [17] = target: T2, Alkaline phosphatase, tissue-nonspecific isozyme (Homo sapiens, UniProt P05186); test: TNAP enzyme activators, dose response, selectivity assay for mouse IAP activator project, biochemical, TNAP isozyme, mouse IAP uHTS hits (AID 488880); type: functional
# T2 sequence (P05186 whole entry): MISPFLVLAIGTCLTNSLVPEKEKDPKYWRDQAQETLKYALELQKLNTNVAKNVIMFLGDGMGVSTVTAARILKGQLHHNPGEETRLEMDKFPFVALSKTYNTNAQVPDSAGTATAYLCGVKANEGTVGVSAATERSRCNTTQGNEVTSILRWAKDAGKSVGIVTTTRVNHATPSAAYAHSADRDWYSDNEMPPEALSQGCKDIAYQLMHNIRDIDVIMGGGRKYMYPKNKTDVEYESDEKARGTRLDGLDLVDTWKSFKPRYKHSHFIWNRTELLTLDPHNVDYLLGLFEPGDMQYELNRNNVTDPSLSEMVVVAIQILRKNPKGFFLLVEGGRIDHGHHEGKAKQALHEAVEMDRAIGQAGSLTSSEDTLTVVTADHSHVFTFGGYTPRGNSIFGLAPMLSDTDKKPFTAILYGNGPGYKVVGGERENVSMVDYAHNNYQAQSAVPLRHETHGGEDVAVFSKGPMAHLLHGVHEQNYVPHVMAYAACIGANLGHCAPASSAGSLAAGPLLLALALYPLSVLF
# [18] = target: T3, Apoptotic protease-activating factor 1 (Homo sapiens, UniProt O14727); type: functional
# T3 sequence (O14727 whole entry): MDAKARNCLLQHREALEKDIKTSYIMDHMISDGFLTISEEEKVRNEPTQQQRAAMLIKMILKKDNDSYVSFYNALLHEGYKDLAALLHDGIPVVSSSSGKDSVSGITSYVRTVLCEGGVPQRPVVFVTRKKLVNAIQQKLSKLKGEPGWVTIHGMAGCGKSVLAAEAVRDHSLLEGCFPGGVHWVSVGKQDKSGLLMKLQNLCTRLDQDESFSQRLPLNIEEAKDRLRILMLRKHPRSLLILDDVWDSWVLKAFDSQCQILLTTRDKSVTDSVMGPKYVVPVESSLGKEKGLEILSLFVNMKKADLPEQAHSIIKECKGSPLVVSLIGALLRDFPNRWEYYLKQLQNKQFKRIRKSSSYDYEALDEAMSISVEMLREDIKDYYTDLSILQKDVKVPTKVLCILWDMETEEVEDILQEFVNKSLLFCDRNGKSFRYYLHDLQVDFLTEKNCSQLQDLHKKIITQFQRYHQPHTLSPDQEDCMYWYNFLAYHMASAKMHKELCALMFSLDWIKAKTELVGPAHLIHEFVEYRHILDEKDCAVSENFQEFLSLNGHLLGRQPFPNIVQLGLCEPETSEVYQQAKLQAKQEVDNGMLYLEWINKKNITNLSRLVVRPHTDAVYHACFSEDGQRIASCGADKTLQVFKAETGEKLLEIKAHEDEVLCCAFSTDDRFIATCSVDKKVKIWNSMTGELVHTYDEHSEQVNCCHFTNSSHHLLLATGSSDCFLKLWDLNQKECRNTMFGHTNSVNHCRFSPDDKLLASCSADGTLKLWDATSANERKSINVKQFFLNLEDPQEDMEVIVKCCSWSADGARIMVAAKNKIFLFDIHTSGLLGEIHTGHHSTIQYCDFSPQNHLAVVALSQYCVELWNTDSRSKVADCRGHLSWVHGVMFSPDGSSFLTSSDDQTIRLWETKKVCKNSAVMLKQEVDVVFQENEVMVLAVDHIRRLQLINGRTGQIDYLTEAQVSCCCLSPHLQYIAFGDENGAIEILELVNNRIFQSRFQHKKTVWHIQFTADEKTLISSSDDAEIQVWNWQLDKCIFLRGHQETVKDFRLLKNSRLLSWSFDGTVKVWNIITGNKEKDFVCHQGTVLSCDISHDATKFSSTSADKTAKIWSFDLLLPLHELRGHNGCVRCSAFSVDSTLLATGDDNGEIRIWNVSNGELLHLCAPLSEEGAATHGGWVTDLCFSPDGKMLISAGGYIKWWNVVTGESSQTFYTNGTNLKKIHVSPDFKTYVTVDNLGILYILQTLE
# [19] = system: BJ; test: cytotoxicity toward Ras-transformed BJeLR fibroblasts, dose response, cell-based, alamar blue fluorescence, cherrypicked samples (AID 2631); type: functional; conditions: Homo sapiens;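 further: confirmatory dose-response assay in RAS-dependent BJ fibroblasts engineered with TERT, LT and ST, with cytotoxicity read by fluorescence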
# [20] = system: INS1; test: beta cell apoptosis inhibitors, cytokine rescue, dose response, luminescence, retest (AID 449756); type: functional, cell-based; conditions: Rattus norvegicus;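 further: cell death triggered by IL-1 beta plus TNF-alpha plus IFN-gamma mixture; protective hits raise ATP signal compared with cytokine alone wells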
# [21] = target: ATP-dependent molecular chaperone HSP82 (Candida albicans (strain WO-1) (Yeast), UniProt C4YTQ8); test: loss of DOC-induced GRE-beta-galactosidase reporter signal, dose response, Hsp90 inhibitor project, S. cerevisiae, luminescence (AID 2400); type: functional, cell-based;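 further: beta-galactosidase luminescence from glucocorticoid response element reporter as proxy for Hsp90 function; inhibitor potency where signal loss means Hsp90 inhibition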
# Chain of ATP-dependent molecular chaperone HSP82 (C4YTQ8 whole entry): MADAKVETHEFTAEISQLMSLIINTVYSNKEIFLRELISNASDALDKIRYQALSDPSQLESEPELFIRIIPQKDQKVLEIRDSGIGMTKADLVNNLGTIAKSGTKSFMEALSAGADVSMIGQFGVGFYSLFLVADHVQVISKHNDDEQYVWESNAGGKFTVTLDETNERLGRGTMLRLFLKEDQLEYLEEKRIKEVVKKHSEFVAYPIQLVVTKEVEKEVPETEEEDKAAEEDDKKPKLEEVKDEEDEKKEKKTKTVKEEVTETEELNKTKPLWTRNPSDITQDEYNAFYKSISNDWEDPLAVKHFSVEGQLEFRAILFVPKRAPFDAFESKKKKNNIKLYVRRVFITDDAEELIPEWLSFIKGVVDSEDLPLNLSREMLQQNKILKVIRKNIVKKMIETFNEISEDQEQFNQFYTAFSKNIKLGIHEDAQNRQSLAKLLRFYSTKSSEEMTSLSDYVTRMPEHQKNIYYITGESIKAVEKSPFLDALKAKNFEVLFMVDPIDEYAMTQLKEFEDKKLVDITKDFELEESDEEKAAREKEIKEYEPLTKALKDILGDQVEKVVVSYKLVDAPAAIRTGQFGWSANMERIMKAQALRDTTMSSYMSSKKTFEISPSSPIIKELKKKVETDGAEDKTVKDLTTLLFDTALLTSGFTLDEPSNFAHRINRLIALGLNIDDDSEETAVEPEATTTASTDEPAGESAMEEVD
# [22] = inhibitors of firefly luciferase expression or activity, dose response, H4 neuroglioma cells, luminescence (AID 1990); type: functional, cell-based
# [23] = Luminescence Cell-Based Dose Response HTS to Identify Inhibitors of 5'UTR Stem-Loop Driven Prion Protein mRNA Translation in H4 Neuroglioblastoma Cells. [Related pubchem assays: 1827 (Project Summary), 1813 (Primary HTS)]; type: functional
# [24] = inhibitors of SNCA 5'UTR-driven reporter translation, confirmation, H4 neuroglioma cells, luminescence (AID 1988); type: functional, cell-based
# [25] = system: HEK293; test: inhibitors of LMP1-driven NF-kB reporter, dose response, cell-based, HEK293, luciferase, cherry-pick (AID 588343); type: functional; conditions: Homo sapiens
# [26] = target: Sphingosine 1-phosphate receptor 2 (Homo sapiens, UniProt O95136); test: Late-stage fluorescence-based dose-response cell-based counterscreen assay to identify agonists of the Sphingosine 1-Phosphate Receptor 3 (S1P3): Sphingosine 1-Phosphate Receptor 2 (S1P2) agonist assay.; type: functional
# Chain of Sphingosine 1-phosphate receptor 2 (O95136 whole entry): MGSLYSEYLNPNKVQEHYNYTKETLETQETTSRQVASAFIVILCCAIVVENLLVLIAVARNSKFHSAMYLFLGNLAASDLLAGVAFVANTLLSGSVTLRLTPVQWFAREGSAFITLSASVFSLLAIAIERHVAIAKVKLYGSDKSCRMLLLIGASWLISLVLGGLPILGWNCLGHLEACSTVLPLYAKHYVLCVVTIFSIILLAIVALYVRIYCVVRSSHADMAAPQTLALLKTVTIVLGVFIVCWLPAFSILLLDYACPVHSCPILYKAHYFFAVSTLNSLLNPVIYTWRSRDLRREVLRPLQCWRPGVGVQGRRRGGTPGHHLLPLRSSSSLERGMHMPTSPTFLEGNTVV
# [27] = target: T4, Sphingosine 1-phosphate receptor 4 (Homo sapiens, UniProt O95977); test: Late-stage fluorescence-based dose-response cell-based counterscreen assay to identify agonists of the Sphingosine 1-Phosphate Receptor 3 (S1P3): Sphingosine 1-Phosphate Receptor 4 (S1P4) agonist assay.; type: functional
# T4 sequence (O95977 whole entry): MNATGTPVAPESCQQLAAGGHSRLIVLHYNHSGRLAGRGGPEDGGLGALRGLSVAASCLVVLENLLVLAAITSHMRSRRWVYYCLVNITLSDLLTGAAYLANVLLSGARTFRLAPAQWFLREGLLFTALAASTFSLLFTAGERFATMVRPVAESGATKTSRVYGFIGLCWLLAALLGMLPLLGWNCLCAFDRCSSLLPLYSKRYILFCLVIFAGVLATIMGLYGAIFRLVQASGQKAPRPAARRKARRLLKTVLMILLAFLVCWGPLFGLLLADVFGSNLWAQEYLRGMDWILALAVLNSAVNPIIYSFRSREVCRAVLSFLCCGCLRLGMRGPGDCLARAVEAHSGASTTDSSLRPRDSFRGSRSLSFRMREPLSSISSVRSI
# [28] = target: 26S proteasome non-ATPase regulatory subunit 14 (Homo sapiens, UniProt O00487); test: inhibition of proteasome subunit RPN11 – biochemical, fluorescence polarization, uHTS hits, confirmation (AID 602368); type: functional
# Chain of 26S proteasome non-ATPase regulatory subunit 14 (O00487 whole entry): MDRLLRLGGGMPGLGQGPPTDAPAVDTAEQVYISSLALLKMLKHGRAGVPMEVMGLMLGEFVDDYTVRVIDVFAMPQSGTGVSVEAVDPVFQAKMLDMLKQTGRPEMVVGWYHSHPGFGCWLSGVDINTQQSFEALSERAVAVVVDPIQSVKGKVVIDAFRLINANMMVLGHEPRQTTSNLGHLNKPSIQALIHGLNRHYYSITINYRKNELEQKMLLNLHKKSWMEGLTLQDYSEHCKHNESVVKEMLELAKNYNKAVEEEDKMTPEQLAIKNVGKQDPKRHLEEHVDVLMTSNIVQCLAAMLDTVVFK
# [29] = target: 72 kDa type IV collagenase (Homo sapiens, UniProt P08253); test: Dose Response validation of uHTS RPN11 inhibitor hits using a MMP-2 Fluorescence assay.; type: functional
# [30] = target: Prothrombin (Bos taurus, UniProt P00735); test: thrombin inhibition, dose response, biochemical, fluorescence polarization, uHTS hits (AID 602369); type: functional
smiles,measurement,setting,value
CCN1/C(=C/c2ccc3cc(C)ccc3[n+]2CC)Sc2ccc3sccc3c21,EC50,[1],21.1 µM (active)
same,EC50,[2],3.29 µM (active)
same,EC50,[3],1.17 µM (inconclusive)
same,EC50,[4],> 40 µM (inactive)
same,EC50,[5],> 150 µM (not active)
same,EC50,[6],0.966 µM (inconclusive)
same,EC50,[7],0.046 µM (active)
same,IC50,[8],> 40 µM (not active)
same,EC50,[9],> 180 µM (inactive)
same,EC50,[10],1.23 µM (inconclusive)
same,EC50,[11],1.45 µM (inconclusive)
same,EC50,[12],4.44 µM (active)
same,EC50,[13],61.8 µM (active)
same,EC50,[14],0.12 µM (active)
same,IC50,[15],> 80 µM (inactive)
same,EC50,[16],35.5 µM (active)
same,EC50,[17],60.6 µM (active)
same,IC50,[18],> 100 µM (inactive)
same,EC50,[19],0.37 µM (inconclusive)
same,AC50,[20],< 0.195 µM (active)
same,EC50,[21],32 µM (active)
COc1ccc(Nc2oc(COc3ccccc3OC)nc2C#N)cc1,EC50,[22],7.69 µM (active)
same,EC50,[23],11 µM (active)
same,EC50,[24],6.17 µM (active)
same,AC50,[25],6.17 µM (active)
O=C(c1cc(C2CC2)on1)N(C1CCCCC1)C1CCCC1,EC50,[26],> 50 µM (inactive)
same,EC50,[27],> 50 µM (inactive)
COc1cc(NC(=O)CCn2c(=S)[nH]c3ccccc3c2=O)cc(OC)c1OC,IC50,[28],74.1 µM (active)
same,IC50,[29],4.5 µM (active)
same,IC50,[30],> 100 µM (inactive)
